Measurements taken from patent US12012411B2, “Viral replication inhibitors” (Katholieke Universiteit Leuven, priority 2011, dated 2024).

Tests used:
[1] = test system: DENV-2 NGC; test: Antiviral activity against DENV-2 NGC in Vero-B cells (viral RNA load by RT-qPCR); format: cell-based, Dengue virus; conditions: Dengue virus, DENV2, Vero B, DENV-2 in Vero-B cells; inhibition of viral RNA replication by 50% (Table 3)
[2] = in vitro; conditions: African green monkey; for CC50 at 4 days: uninfected quiescent Vero-B cells

| SMILES | EC50 [1] | CC50 at 4 days [2] | CC50 [2] |
| --- | --- | --- | --- |
| COc1cc(NC(C(=O)c2cn(C)c3ccccc23)c2ccccc2)ccn1 (stereo not shown) [CPD-100] | 12 µM | 42 µM | – |
| COc1cc(NC(C(=O)c2c[nH]c3c(Cl)cccc23)c2ccccc2)ccn1 (stereo not shown) [CPD-101] | 4.9 µM | 11 µM | – |
| COc1cccc(NC(C(=O)c2c[nH]c3ccccc23)c2cc(C)no2)c1 (stereo not shown) [CPD-102] | 0.62 µM | 65 µM | – |
| COc1cccc(NC(C(=O)c2cn(CCN)c3ccccc23)c2ccccc2)c1 (stereo not shown) [CPD-105] | 1.23 µM | – | 14 µM |
| COc1cccc(NC(C(=O)c2cn(CC(=O)O)c3ccccc23)c2ccccc2)c1 (stereo not shown) [CPD-106] | 8.93 µM | – | > 120 µM |
| CCn1nccc1C(Nc1cccc(OC)c1)C(=O)c1c[nH]c2ccccc12 (stereo not shown) [CPD-107] | 7.88 µM | 20 µM | – |
| COc1cccc(NC(C(=O)c2c[nH]c3ccccc23)c2cn3c(F)cccc3n2)c1 (stereo not shown) [CPD-109] | 0.53 µM | 84 µM | – |
| COc1cccc(NC(C(=O)c2c[nH]c3ccccc23)c2cn3cc(F)ccc3n2)c1 (stereo not shown) [CPD-110] | 0.58 µM | 73 µM | – |
| COc1cccc(NC(C(=O)c2cn(S(C)(=O)=O)c3ccccc23)c2ccccc2)c1 (stereo not shown) [CPD-111] | 0.44 µM | > 115 µM | – |
| COc1cccc(NC(C(=O)c2c[nH]c3ccccc23)c2ccc(COCN(C)C)cc2)c1 (stereo not shown) [CPD-112] | 3.27 µM | 12 µM | – |
| CCOC(=O)Cn1cc(C(=O)C(Nc2cccc(OC)c2)c2ccccc2)c2ccccc21 (stereo not shown) [CPD-113] | 0.49 µM | – | > 112 µM |
| COc1cccc(NC(C(=O)c2cn(CCN(C)C)c3ccccc23)c2ccccc2)c1 (stereo not shown) [CPD-114] | 1.1 µM | – | 52 µM |
| COc1cccc(N2C(=O)CN(C)n3cc(c4ccccc43)C(=O)C2c2ccccc2)c1 (stereo not shown) [CPD-115] | 10.6 µM | 49 µM | – |
| COc1cccc(NC(C(=O)c2cn(C)c3ccccc23)c2cc(C)on2)c1 (stereo not shown) [CPD-117] | 3.57 µM | > 133 µM | – |
| COc1cc(NC(C(=O)c2cn(S(C)(=O)=O)c3ccccc23)c2ccccc2)ccn1 (stereo not shown) [CPD-121] | 5.76 µM | 60 µM | – |
| COc1cccc(NC(C(=O)c2c[nH]c3ccccc23)c2ccc(CN(C)C)cc2)c1 (stereo not shown) [CPD-124] | 0.56 µM | 3 µM | – |
| COc1cccc(NC(C(=O)c2c[nH]c3ccccc23)c2[nH]cnc2C)c1 (stereo not shown) [CPD-125] | 7.19 µM | > 138 µM | – |
| COc1cccc(NC(C(=O)c2c[nH]c3ccccc23)c2ccc(CO)cc2)c1 (stereo not shown) [CPD-127] | 2.15 µM | 72 µM | – |
| COc1cccc(NC(C(=O)c2c[nH]c3ccc(S(=O)(=O)N(C)C)cc23)c2ccccc2)c1 (stereo not shown) [CPD-129] | 1.09 µM | > 108 µM | – |
| COc1cccc(NC(C(=O)c2c[nH]c3ccccc23)c2ccc(C#N)c(F)c2)c1 (stereo not shown) [CPD-132] | 0.05 µM | 12 µM | – |
| COc1cccc(NC(C(=O)c2c[nH]c3cc(O)ccc23)c2ccccc2)c1 (stereo not shown) [CPD-134] | 0.46 µM | 49 µM | – |
| COc1cccc(NC(C(=O)c2c[nH]c3cc(C(=O)O)ccc23)c2ccccc2)c1 (stereo not shown) [CPD-135] | 40.7 µM | > 124 µM | – |
| COCCn1cc(C(=O)C(Nc2cccc(OC)c2)c2ccccc2)c2ccccc21 (stereo not shown) [CPD-136] | 0.22 µM | – | > 120 µM |
| COc1cccc(NC(C(=O)c2c[nH]c3cc(CO)ccc23)c2ccccc2)c1 (stereo not shown) [CPD-140] | 2.15 µM | 53 µM | – |

| SMILES | EC50 [1] | CC50 at 4 days [2] | CC50 [2] |
| --- | --- | --- | --- |
| CNC(=O)c1cccc(NC(C(=O)c2c[nH]c3ccccc23)c2ccccc2)c1 (stereo not shown) [CPD-170] | 0.44 µM | 26 µM | – |
| CC(=O)Nc1cccc(NC(C(=O)c2c[nH]c3ccccc23)c2ccccc2)c1 (stereo not shown) [CPD-174] | 10.1 µM | 61 µM | – |
| O=C(c1c[nH]c2ccccc12)C(Nc1cccc(CO)c1)c1ccccc1 (stereo not shown) [CPD-179] | 5.3 µM | 135 µM | – |
| CC(NC(C(=O)c1c[nH]c2ccccc12)c1ccccc1)c1ccco1 (stereo not shown) [CPD-180] | 57 µM | > 145 µM | – |
| O=C(c1c[nH]c2ccccc12)C(Nc1cccc(N2CCCC2=O)c1)c1ccccc1 (stereo not shown) [CPD-181] | 4.22 µM | > 122 µM | – |
| O=C(c1c[nH]c2ccccc12)C(NC1CCOc2ccccc21)c1ccccc1 (stereo not shown) [CPD-182] | 3.01 µM | 12 µM | – |
| CCCN1CCC(NC(C(=O)c2c[nH]c3ccccc23)c2ccccc2)CC1 (stereo not shown) [CPD-184] | 22.4 µM | 70 µM | – |
| CCc1cccc2c(C(=O)C(Nc3ccc(NC(=O)CN4CCOCC4)cc3)c3ccccc3)c[nH]c12 (stereo not shown) [CPD-186] | 4.35 µM | 40 µM | – |
| NS(=O)(=O)c1cccc(NC(C(=O)c2c[nH]c3ccccc23)c2ccccc2)c1 (stereo not shown) [CPD-187] | 3.18 µM | 58 µM | – |
| CN(Cc1ccco1)C(C(=O)c1c[nH]c2ccccc12)c1ccccc1 (stereo not shown) [CPD-189] | 0.93 µM | > 145 µM | – |
| O=C(c1c[nH]c2ccccc12)C(NCC1COc2ccccc2O1)c1ccccc1 (stereo not shown) [CPD-190] | 1.71 µM | 11 µM | – |
| O=C(c1c[nH]c2ccccc12)C(NC1CCSc2ccccc21)c1ccccc1 (stereo not shown) [CPD-191] | 2.58 µM | 13 µM | – |
| CCOc1ccc(NC(C(=O)c2c[nH]c3ccccc23)c2ccccc2)cc1CO (stereo not shown) [CPD-192] | 5.62 µM | 50 µM | – |
| COc1cccc(NC(C(=O)c2c[nH]c3cccnc23)c2ccccc2)c1 (stereo not shown) [CPD-195] | 12.7 µM | 65 µM | – |
| COc1cccc(NC(C(=O)c2cnc3ccccn23)c2ccccc2)c1 (stereo not shown) [CPD-196] | 62.6 µM | > 139 µM | – |
| COc1cccc(NC(C(=O)c2cnn3ccccc23)c2ccccc2)c1 (stereo not shown) [CPD-197] | 3.3 µM | > 139 µM | – |
| COc1cccc(NC(C(=O)c2n[nH]c3ccccc23)c2ccccc2)c1 (stereo not shown) [CPD-198] | 0.14 µM | 16 µM | – |
| COc1cc(NC(C(=O)c2csc3ccccc23)c2cn3ccccc3n2)ccn1 (stereo not shown) [CPD-199] | 24.9 µM | > 120 µM | – |
| COc1cccc(NC(C(=O)c2c[nH]c3cnccc23)c2ccccc2)c1 (stereo not shown) [CPD-200] | 2.24 µM | 54 µM | – |
| COc1cccc(NC(C(=O)c2c[nH]c3ccncc23)c2ccccc2)c1 (stereo not shown) [CPD-201] | 12.2 µM | 74 µM | – |
| COc1cccc(NC(C(=O)c2csc3c2CCN(C)C3)c2ccccc2)c1 (stereo not shown) [CPD-202] | 8.33 µM | 104 µM | – |
| O=C(c1c[nH]c2ccccc12)C(Nc1ccnc(F)c1)c1ccccc1 (stereo not shown) [CPD-207] | 3.83 µM | 16 µM | – |
| COc1cccc(NC(C(=O)c2cn(S(=O)(=O)c3cn(C)cn3)c3ccccc23)c2ccccc2)c1 (stereo not shown) [CPD-209] | 1.12 µM | > 100 µM | – |
| CCS(=O)(=O)n1cc(C(=O)C(Nc2cccc(OC)c2)c2ccccc2)c2ccccc21 (stereo not shown) [CPD-211] | 2.83 µM | > 111 µM | – |

| SMILES | EC50 [1] | CC50 at 4 days [2] | CC50 [2] |
| --- | --- | --- | --- |
| COc1cccc(NC(C(=O)c2c[nH]c3ccccc23)c2cccnc2OC)c1 (stereo not shown) [CPD-215] | 0.16 µM | 14 µM | – |
| COc1cccc(NC(C(=O)c2cn(CCN3CCOCC3)c3ccccc23)c2ccccc2)c1 (stereo not shown) [CPD-216] | 0.84 µM | – | > 106 µM |
| COc1cccc(NC(C(=O)c2cn(S(=O)(=O)C3CCNCC3)c3ccccc23)c2ccccc2)c1 (stereo not shown) [CPD-217] | 0.25 µM | 11 µM | – |
| COc1cc(NC(C(=O)c2c[nH]c3ccccc23)c2ccccc2)ccc1C#N (stereo not shown) [CPD-218] | 2.39 µM | 13 µM | – |
| COc1cccc(NC(C(=O)c2nn(C)c3c2CNCC3)c2ccccc2)c1 (stereo not shown) [CPD-221] | 29.3 µM | 80 µM | – |
| COc1cccc(NC(C(=O)c2nn(C)c3c2CN(C)CC3)c2ccccc2)c1 (stereo not shown) [CPD-223] | 58 µM | > 128 µM | – |
| COc1cccc(NC(C(=O)c2c[nH]c3c(C)cccc23)c2ccccc2)c1 (stereo not shown) [CPD-224] | 0.05 µM | > 134 µM | – |
| COc1cccc(NC(C(=O)c2c[nH]c3ccc(CN(C)C)cc23)c2ccccc2)c1 (stereo not shown) [CPD-228] | 1.62 µM | 13 µM | – |
| COc1cccc(NC(C(=O)c2c[nH]c3cccc(OC)c23)c2ccccc2)c1 (stereo not shown) [CPD-231] | 1.22 µM | 18 µM | – |
| COc1cccc(NC(C(=O)c2c[nH]c3ccccc23)c2ccc(N(C)C)nc2)c1 (stereo not shown) [CPD-239] | 22.7 µM | > 125 µM | – |
| CCOc1cncc(NC(C(=O)c2c[nH]c3ccccc23)c2ccccc2)c1 (stereo not shown) [CPD-246] | 0.32 µM | 16 µM | – |
| CC(C)Oc1cncc(NC(C(=O)c2c[nH]c3ccccc23)c2ccccc2)c1 (stereo not shown) [CPD-247] | 0.42 µM | 15 µM | – |
| CCc1cncc(NC(C(=O)c2c[nH]c3ccccc23)c2ccccc2)c1 (stereo not shown) [CPD-248] | 0.56 µM | 15 µM | – |
| CCOc1ccc(C(Nc2cccc(OC)c2)C(=O)c2c[nH]c3ccccc23)cn1 (stereo not shown) [CPD-250] | 0.22 µM | 15 µM | – |
| COc1cccc(NC(C(=O)c2c[nH]c3cccc(C)c23)c2ccccc2)c1 (stereo not shown) [CPD-251] | 0.07 µM | 14 µM | – |
| COc1cc(NC(C(=O)c2c[nH]c3ccccc23)c2ccccc2)cnc1N(C)C (stereo not shown) [CPD-257] | 0.45 µM | 17 µM | – |
| COc1cncc(NC(C(=O)c2nn(C)c3ccccc23)c2ccccc2)c1 (stereo not shown) [CPD-259] | 0.54 µM | 14 µM | – |
| CNc1ncc(NC(C(=O)c2c[nH]c3ccccc23)c2ccccc2)cc1OC (stereo not shown) [CPD-261] | 0.39 µM | 15 µM | – |
| COc1cc(CN(C)C)cc(NC(C(=O)c2c[nH]c3ccccc23)c2ccccc2)c1 (stereo not shown) [CPD-263] | 2.18 µM | 13 µM | – |
| COc1cccc(NC(C(=O)c2nn(C)c3ccccc23)c2ccc(OC)nc2)c1 (stereo not shown) [CPD-264] | 0.51 µM | > 124 µM | – |
| COc1cccc(NC(C(=O)c2c[nH]c3ccccc23)c2cc(C)n(C)n2)c1 (stereo not shown) [CPD-267] | 1.3 µM | 79 µM | – |
| COc1cccc(NC(C(=O)c2c[nH]c3ccccc23)c2ccc(OC(C)C)nc2)c1 (stereo not shown) [CPD-268] | 0.46 µM | 15 µM | – |
| O=C(c1c[nH]c2ccccc12)C(Nc1cncc(OC(F)F)c1)c1ccccc1 (stereo not shown) [CPD-269] | 0.48 µM | 13 µM | – |
